From publication PMC8241022 (Drug Delivery, 2017)
Where two headings read alike, the source gives them in different places. Marks after values point to notes of the source that are not given here.

Columns and labels:
[1] = for dexamethasone concentration, Choroidal/retinal compound / dexamethasone concentration, Sclera / dexamethasone concentration, Vitreum: CCSDD: first dose 0.3 ml (5 mg/ml) DEXP, then 0.1 ml/h for 10 h, mean ± SD, n=6
Experimental: (§1) Male and female New Zealand albino rabbits (about four months old and weighing 2.0–2.5 kg) were acquired from the Third Xiangya Hospital of Central South University (Changsha, China). All rabbits were examined thoroughly, and no ocular disease, then were randomly allocated to different groups for subsequent ocular PK studies. Animals were anesthetized by intramuscularly injecting Xylazine Hydrochloride Injection (2 ml:0.2 g, Huamu Animal Health Products Co., Jilin, 0.1–0.2 ml/kg) and dropped Oxybuprocaine Hydrochloride Eye Drops (20 ml:80 mg, Sa) three times, interval 2 min per time.
(§2) Rabbits were randomly divided into three groups and six rabbits for each group per time point. […] After the last instillation in IV group (1 h, 3 h, 6 h, 12 h, 24 h) and SC injection group (1 h, 2 h, 3 h, 4 h, 6 h, 8 h, 12 h, 24 h), respectively, the ocular tissue were collected. […] Animals were euthanized by 3 ml lidocaine (3 ml/rabbit) and 3 ml air intravenously, immediately after death, ocular tissues were collected. Vitreous, choroid/retina and sclera were dissected and weighted as the solid tissues, the samples were stored at −20 °C and then processed for analysis.
(§3) Frozen rabbit samples were thawed at ambient temperature, the solid samples were fixed with 400 ml 0.9% normal saline (NS) and homogenized. A 100 μl aliquot of Triamcinolone diacetate (I.S. 200 ng/ml) standard solution was added to 100 μl of each fluid sample and 400 μl 0.9% NS or homogenized samples. After a thorough vortex mixing for 30 s, the mixture was extracted with 1 ml n-hexane and acetate ester (1:1, v/v) for 60 min, the mixture was centrifuged at 14 000 rpm for 5 min. The organic layer was removed and evaporated under a gentle stream nitrogen gas at 45 °C until it was completely dry. The dried residue was dissolved with 50 μl mobile phase. After centrifugation, 5 μl of the clear supernatant was injected into the LC–MS system: LC-10AD VP low pressure gradient pump, CTO-10A VP column temperature oven, SCL-10AD VP system controller, and LC-MS chemstation. Separation was achieved on a Thermo Hypersil-Hypurity C18 column (150 mm × 2.1 mm, i.d., 5 μm, USA) at 40 °C. […] The operating parameters of ESI–MS (electrospray ionization–mass spectrometry) were as follows: capillary voltage was 4.5 kV; nebulizer nitrogen gas flow-rate was 1.5 l/min; drying N2 flow was 10 l/min; drying gas temperature was 250 °C, the gas used was of high purity, and system control and data evaluation were carried out using LC-MS chemstation (Japan). […] Quantitation was performed by a linear regression analysis of peak areas ratio from a standard curve containing seven standard points.
(§4) The following pharmacokinetic parameters were obtained: peak concentration (Cmax), time to peak concentration (Tmax), elimination half-life (T1/2), area under the concentration–time curve between 0 and 24 h (AUC0–24).
(§5) Tissue concentrations were analyzed using one-way analysis of variance (ANOVA). If there were differences in three groups, we used Dunnett T3 to analyze two groups. All other results were descriptive measures. Statistical significance was accepted at a level of p < 0.05.

[2] = SC: subconjunctival injection of 0.3 ml (5 mg/ml) DEXP, mean ± SD, n=6
Experimental: as §1, §2, §3, §4, §5

[3] = for dexamethasone concentration, Choroidal/retinal compound / dexamethasone concentration, Sclera / dexamethasone concentration, Vitreum: IV: intravenous injection of 1 mg/kg DEXP, mean ± SD, n=6
Experimental: as §1, §2, §3, §4, §5

in vivo [4] = conditions: both, New Zealand albino, rabbit; for Tmax: CCSDD group, 0.3 ml (5 mg/ml) DEXP then 0.1 ml/h for 10 h
Experimental: as §1, §2, §3, §4, §5

in vivo [5] = conditions: both, New Zealand albino, rabbit, iv, 1 mg/kg
Experimental: as §1, §2, §3, §4, §5

C[C@@H]1C[C@H]2[C@@H]3CCC4=CC(=O)C=C[C@]4(C)[C@@]3(F)[C@@H](O)C[C@]2(C)[C@@]1(O)C(=O)CO [dexamethasone]
AUC0–24, choroid/retinal compound ([1]; CCSDD administration, rabbit): 41400.70 ng·h/g | AUC0–24, sclera ([1]; CCSDD administration, rabbit): 93577.80 ng·h/g | dexamethasone concentration, Choroidal/retinal compound ([1]; 1 h after first dose): 2522.46 ± 425.94 | dexamethasone concentration, Sclera ([1]; 1 h after first dose): 11192.22 ± 5302.51 | dexamethasone concentration, Vitreum ([1]; 1 h after first dose): 71.05 ± 30.23 | dexamethasone concentration, Choroidal/retinal compound ([1]; 3 h after first dose): 3291.35 ± 438.11 | dexamethasone concentration, Sclera ([1]; 3 h after first dose): 9785.20 ± 1964.12 | dexamethasone concentration, Vitreum ([1]; 3 h after first dose): 57.23 ± 12.34 | dexamethasone concentration, Choroidal/retinal compound ([1]; 6 h after first dose): 2331.09 ± 454.41 | dexamethasone concentration, Sclera ([1]; 6 h after first dose): 6215.17 ± 1871.83 | dexamethasone concentration, Vitreum ([1]; 6 h after first dose): 50.23 ± 13.77 | dexamethasone concentration, Choroidal/retinal compound ([1]; 10 h after first dose): 1796.19 ± 380.36 | dexamethasone concentration, Sclera ([1]; 10 h after first dose): 4053.03 ± 1330.47 | dexamethasone concentration, Vitreum ([1]; 10 h after first dose): 50.51 ± 8.40 | dexamethasone concentration, Choroidal/retinal compound ([1]; 11 h after first dose): 1518.52 ± 332.81 | dexamethasone concentration, Sclera ([1]; 11 h after first dose): 3857.47 ± 1508.05 | dexamethasone concentration, Vitreum ([1]; 11 h after first dose): 42.84 ± 6.24 | dexamethasone concentration, Choroidal/retinal compound ([1]; 12 h after first dose): 1191.62 ± 303.29 | dexamethasone concentration, Sclera ([1]; 12 h after first dose): 1913.73 ± 389.28 | dexamethasone concentration, Vitreum ([1]; 12 h after first dose): 33.52 ± 5.31 | dexamethasone concentration, Choroidal/retinal compound ([1]; 16 h after first dose): 988.97 ± 336.43 | dexamethasone concentration, Sclera ([1]; 16 h after first dose): 1215.48 ± 449.07 | dexamethasone concentration, Choroidal/retinal compound ([1]; 20 h after first dose): 812.90 ± 188.26 | dexamethasone concentration, Sclera ([1]; 20 h after first dose): 906.40 ± 312.84 | dexamethasone concentration, Vitreum ([1]; 20 h after first dose): 27.78 ± 3.26 | dexamethasone concentration, Choroidal/retinal compound ([1]; 24 h after first dose): 418.20 ± 97.81 | dexamethasone concentration, Sclera ([1]; 24 h after first dose): 484.52 ± 155.25 | dexamethasone concentration, Vitreum ([1]; 24 h after first dose): 22.40 ± 4.38 | dexamethasone concentration, Choroidal/retinal compound ([2]; 1 h): 1881.83 ± 336.98^a | dexamethasone concentration, Sclera ([2]; 1 h): 8604.95 ± 1597.26 | dexamethasone concentration, Vitreum ([2]; 1 h): 63.19 ± 15.12 | dexamethasone concentration, Choroidal/retinal compound ([2]; 2 h): 3212.63 ± 796.76 | dexamethasone concentration, Sclera ([2]; 2 h): 6071.65 ± 737.76 | dexamethasone concentration, Vitreum ([2]; 2 h): 80.45 ± 11.10 | dexamethasone concentration, Choroidal/retinal compound ([2]; 3 h): 3638.80 ± 580.05 | dexamethasone concentration, Sclera ([2]; 3 h): 4419.68 ± 1006.87^a | dexamethasone concentration, Vitreum ([2]; 3 h): 73.77 ± 14.74 | dexamethasone concentration, Choroidal/retinal compound ([2]; 4 h): 1701.27 ± 551.90 | dexamethasone concentration, Sclera ([2]; 4 h): 2287.56 ± 742.66 | dexamethasone concentration, Vitreum ([2]; 4 h): 39.65 ± 8.87 | dexamethasone concentration, Choroidal/retinal compound ([2]; 6 h): 1333.65 ± 469.43^a | dexamethasone concentration, Sclera ([2]; 6 h): 1645.75 ± 631.69^a | dexamethasone concentration, Vitreum ([2]; 6 h): 34.53 ± 6.89 | dexamethasone concentration, Choroidal/retinal compound ([2]; 8 h): 760.86 ± 177.74 | dexamethasone concentration, Sclera ([2]; 8 h): 1031.78 ± 443.14 | dexamethasone concentration, Vitreum ([2]; 8 h): 28.29 ± 4.56 | dexamethasone concentration, Sclera ([2]; 12 h): 463.21 ± 136.14^a | dexamethasone concentration, Vitreum ([2]; 12 h): 22.68 ± 5.40^a | dexamethasone concentration, Choroidal/retinal compound ([2]; 24 h): 184.59 ± 94.86^a | dexamethasone concentration, Sclera ([2]; 24 h): 237.94 ± 139.25^a | dexamethasone concentration, Vitreum ([2]; 24 h): 3.71 ± 4.31^a | AUC0–24, choroid/retinal compound ([3]; IV route, rabbit): 1571.71 ng·h/g | AUC0–24, sclera ([3]; IV route, rabbit): 2858.71 ng·h/g | dexamethasone concentration, Choroidal/retinal compound ([3]; 1 h): 140.57 ± 34.56^a | dexamethasone concentration, Sclera ([3]; 1 h): 281.42 ± 60.13^a | dexamethasone concentration, Vitreum ([3]; 1 h): 43.78 ± 2.62 | dexamethasone concentration, Sclera ([3]; 3 h): 402.99 ± 96.49^a | dexamethasone concentration, Vitreum ([3]; 3 h): 30.08 ± 2.55^a | dexamethasone concentration, Choroidal/retinal compound ([3]; 6 h): 90.75 ± 12.08^a | dexamethasone concentration, Sclera ([3]; 6 h): 141.57 ± 31.46^a | dexamethasone concentration, Vitreum ([3]; 6 h): 21.53 ± 2.66^a | dexamethasone concentration, Choroidal/retinal compound ([3]; 12 h): 38.94 ± 13.00^a | dexamethasone concentration, Sclera ([3]; 12 h): 64.38 ± 11.83^a | dexamethasone concentration, Vitreum ([3]; 12 h): 5.34 ± 5.11^a | dexamethasone concentration, Choroidal/retinal compound ([3]; 24 h): 3.71 ± 4.50^a | dexamethasone concentration, Sclera ([3]; 24 h): 22.23 ± 7.44^a | dexamethasone concentration, Vitreum ([3]; 24 h): 1.37 ± 2.14^a | Cmax (in vivo [4]; choroid/retina): 3220 ng/g | Cmax (in vivo [4]; in vivo, topical or ocular, 6.5 mg): 71 ng/mL | Tmax (in vivo [4]; in vivo, topical or ocular, 6.5 mg, Choroidal/retinal compound): 3 h | Tmax (in vivo [4]; in vivo, topical or ocular, 6.5 mg, Sclera): 1 h | Tmax (in vivo [4]; in vivo, topical or ocular, 6.5 mg, Vitreum): 1 h | Cmax (in vivo [4]; sclera): 11200 ng/g | AUC(0-t) (in vivo [4]; vitreous, topical or ocular, 6.5 mg): 1410 ng·h/mL | Cmax (in vivo [5]; choroid/retina): 285 ng/g | Tmax (in vivo [5]; choroid/retina): 3 h | Cmax (in vivo [5]; sclera): 403 ng/g | Tmax (in vivo [5]; sclera): 3 h | AUC(0-t) (in vivo [5]; vitreous): 285 ng·h/mL | Cmax (in vivo [5]; vitreous): 43.8 ng/mL | Tmax (in vivo [5]; vitreous): 1 h
